Experimental data: patent US10160867B2, “Benzoxaborole-containing coating resistant to cellulose-supportable fungus” (THE PENN STATE RESEARCH FOUNDATION, priority 2015, dated 2018)
Values after ≈ are worked out from the molar mass of the structure shown.

What was measured:
Assay type in all cases: cell-based
Penicillium chrysogenum [1] = assay: Fungus resistance test for painted surfaces containing antifungal additives (defacement rating); parameters: key: 10 = no defacement, 0 = completely defaced
Method: (§1) A Defacement Rating is measured by estimating the percentage of surface defacement with 10 being no defacement and 0 begin completely defaced.
(§2) This test was used to evaluate the resistance of paint films containing antifungal additives to surface fungal growth.
(§3) Olympic® Home interior flat latex paint (PPG Industries, Pittsburgh, Pa.) and Valspar® QuikHide White flat interior paint (Valspar Corporation, Minneapolis, Minn.) were used for all studies unless otherwise noted. Stock solutions of the antifungal additives of interest were prepared in reagent grade dimethyl sulfoxide (DMSO; Alfa Aesar, Ward Hill, Mass.). Additives were spiked (by adding appropriate amounts of the antifungal stock solutions) into the liquid paint at specified concentrations. Samples of the additive-spiked paint were vigorously mixed with a vortex mixer for at least one minute to ensure uniform dispersion of the additive in the paint. […] Studies that use other brands of paint followed the same protocol as described for those using the Olympic® Home interior flat latex paint and Valspar® QuikHide paint.
(§4) Test surfaces were prepared in triplicate. In most cases, the tested conditions were repeated on a different date, again in triplicate. […] Two coats of paint were applied with a polyester brush to completely cover both faces of the filter paper disc, allowing at least four hours drying time between coats.
(§5) Nutrient-Salts Agar (NSA) medium was prepared according to ASTM method G21-13 in 100×15 mm sterile polystyrene petri dishes (VWR® Radnor, Pa.) with a solidified agar layer of about 3 to about 6 mm (⅛ to ¼ in.) in depth. The agar was allowed to solidify for at least 24 hours before being used. The painted test filter paper discs were placed in the center of the agar plates in a biosafety hood while wearing clean nitrile gloves.
(§6) The paint coatings were evaluated against three representative cellulose-supportable fungi: Stachybotrys chartarum, Penicillium chrysogenum, and Alternaria alternata. […] Fungal isolates of Alternaria alternata and Penicillium chrysogenum were obtained from the Plant Pathology and Environmental Microbiology Department at Penn State University.
(§7) A spore suspension of each of these fungi was prepared by pouring a 20-mL portion of autoclaved deionized water containing 0.01% Tween® 20 onto a subculture of each fungal species. Spores were counted with the use of a hemocytometer (Hausser Scientific, Horsham, Pa.) under a compound light microscope. Spore suspensions of Stachybotrys chartarum and Penicillium chrysogenum were diluted to 1×10^6 spores/mL with autoclaved deionized water. Spore suspensions of Alternaria alternata were used “as is” in the range of 200,000 to 400,000 spores/mL.
(§8) Painted test surfaces were inoculated with a spray bottle or with a sterile cotton-tipped applicator. To inoculate the sample with a spray bottle, the spore suspension was sprayed twice on the painted test discs with an autoclaved spray bottle that delivered approximately 0.14 g of fluid per spray. To inoculate the sample with a cotton-tipped applicator, an autoclaved cotton-tipped applicator was submerged in approximately 400 μL of the spore inoculum solution (spore concentrations described above) and applied evenly over the surface of the painted test surface twice. A fresh autoclaved cotton-tipped applicator was used for the application of each painted disc. All the paint studies with Alternaria alternata and Stachybotrys chartarum were inoculated using the spray bottle method. For studies with Penicillium chrysogenum using Olympic® Home paint, the spray bottle inoculation method was used. For studies with Penicillium chrysogenum using Valspar® QuikHide paint, the cotton-tipped applicator inoculation method was used.
(§9) After inoculation, the NSA agar plates were sealed with Parafilm®.

Stachybotrys chartarum [2] = assay: as above; parameters: key: 10 = no defacement, 0 = completely defaced; settings: +100 μg/mL in Olympic Home paint
Method: as §1, §2, §3, §4, §5, §6, §7, §8, §9

Alternaria alternata [3] = assay: as above; parameters: key: 10 = no defacement, 0 = completely defaced; settings: +100 μg/mL in Olympic Home paint
Method: as §1, §2, §3, §4, §5, §6, §7, §8, §9

Penicillium chrysogenum [4] = assay: 3 day MIC, broth microdilution in 25% PDB; settings: 25% PDB
Method: (§10) Stock solutions (concentrations of between 4,000 μg/mL to 10,000 μg/mL; stored at −18° C.) of the above antifungals were prepared in dimethyl sulfoxide (DMSO). The stock solutions were further diluted into sterile 25% potato dextrose broth (PDB) so that the diluted solutions could be used for the antifungal susceptibility studies. This way, a typical microdilution study would reach a final ratio of about 0.5-2% v/v of DMSO in 25% PDB.
(§11) Spore inocula were prepared in sterile distilled water with 0.1% Tween® 20 (a polysorbate surfactant), and a hemocytometer was used to determine the spore density. Typically, the spore inoculum was prepared fresh prior to each study, and the inoculum was appropriately diluted to a final concentration of 0.4-1×10^5 spores/mL or colony-forming unit (CFU)/mL in each study. The spore suspension can be stored in a refrigerator at 4° C. for up to one week.
(§12) The studies were performed in flat bottom, 96-well microtiter plates (Greiner Bio-One, Frickenhausen, Germany).
(§13) Plates sealed with clear polyester film (VWR, Radnor, Pa.) were incubated at a temperature of about 25° C. The progress of fungal growth was monitored at 48 hours and 72 hours.

Stachybotrys chartarum [5] = assay: 3 day MIC, broth microdilution in 25% PDB; settings: 25% PDB
Method: as §10, §11, §12, §13

[6] = tested on: Penicillium brevicompactum; assay: 3 day MIC, broth microdilution in 25% PDB; settings: 25% PDB
Method: as §10, §11, §12, §13

Penicillium purpurogenum = assay: 3 day MIC, broth microdilution in 25% PDB; settings: Penicillium purpurogenum, 25% PDB
Method: as §10, §11, §12, §13

Alternaria alternata [7] = assay: 3 day MIC, broth microdilution in 25% PDB; settings: 25% PDB
Method: as §10, §11, §12, §13

Penicillium corylophilum = assay: 3 day MIC, broth microdilution in 25% PDB; settings: 25% PDB
Method: as §10, §11, §12, §13

[8] = +100 μg/mL in Olympic Home paint, 7 days
[9] = +100 μg/mL in Olympic Home paint, 14 days
[10] = +100 μg/mL in Olympic Home paint, 21 days
[11] = +200 μg/mL in Olympic Home paint, 7 days
[12] = +200 μg/mL in Olympic Home paint, 14 days
[13] = +200 μg/mL in Olympic Home paint, 21 days
[14] = +200 μg/mL in Valspar QuikHide paint, 7 days
[15] = +200 μg/mL in Valspar QuikHide paint, 14 days
[16] = +200 μg/mL in Valspar QuikHide paint, 21 days

## CCCCNC(=O)OCC#CI [IPBC, 3-Iodo-2-propynylbutylcarbamate]
Penicillium chrysogenum [1]; [8]
  Average defacement rating ± standard deviation: 10.0 ± 0.0
Penicillium chrysogenum [1]; [9]
  Average defacement rating ± standard deviation: 9.4 ± 0.4
Penicillium chrysogenum [1]; [10]
  Average defacement rating ± standard deviation: 9.4 ± 0.4
Penicillium chrysogenum [1]; [11]
  Average defacement rating ± standard deviation: 10.0 ± 0.0
Penicillium chrysogenum [1]; [12]
  Average defacement rating ± standard deviation: 10.0 ± 0.0
Penicillium chrysogenum [1]; [13]
  Average defacement rating ± standard deviation: 9.3 ± 0.8
Penicillium chrysogenum [1]; [14]
  Average defacement rating ± standard deviation: 10.0 ± 0.0
Penicillium chrysogenum [1]; [15]
  Average defacement rating ± standard deviation: 10.0 ± 0.0
Penicillium chrysogenum [1]; [16]
  Average defacement rating ± standard deviation: 10.0 ± 0.0
Stachybotrys chartarum [2]; 7 days
  Average defacement rating ± standard deviation: 9.9±0.3
Stachybotrys chartarum [2]; 14 days
  Average defacement rating ± standard deviation: 8.1 ± 1.5
Stachybotrys chartarum [2]; 21 days
  Average defacement rating ± standard deviation: 6.1±2.7
Alternaria alternata [3]; 7 days
  Average defacement rating ± standard deviation: 9.9 ± 0.4
Alternaria alternata [3]; 14 days
  Average defacement rating ± standard deviation: 8.4 ± 2.7
Alternaria alternata [3]; 21 days
  Average defacement rating ± standard deviation: 7.5 ± 3.4
Penicillium chrysogenum [4]
  3 day MIC: 0.2 µg/mL
Stachybotrys chartarum [5]
  3 day MIC: 0.8 µg/mL
[6]
  3 day MIC: 0.4 µg/mL
Penicillium purpurogenum
  3 day MIC: <0.1 µg/mL
Alternaria alternata [7]
  3 day MIC: 0.8 µg/mL
Penicillium corylophilum
  3 day MIC: 0.20 µg/mL

## N#Cc1c(Cl)c(Cl)c(Cl)c(C#N)c1Cl [Chlorothalonil, chlorothalonil]
Penicillium chrysogenum [1]; [8]
  Average defacement rating ± standard deviation: 4.9 ± 1.9
Penicillium chrysogenum [1]; [9]
  Average defacement rating ± standard deviation: 0.0 ± 0.0
Penicillium chrysogenum [1]; [10]
  Average defacement rating ± standard deviation: 0.0 ± 0.0
Penicillium chrysogenum [1]; [11]
  Average defacement rating ± standard deviation: 8.3 ± 1.4
Penicillium chrysogenum [1]; [12]
  Average defacement rating ± standard deviation: 0.8 ± 2.0
Penicillium chrysogenum [1]; [13]
  Average defacement rating ± standard deviation: 0.0 ± 0.0
Penicillium chrysogenum [1]; [14]
  Average defacement rating ± standard deviation: 10.0 ± 0.0
Penicillium chrysogenum [1]; [15]
  Average defacement rating ± standard deviation: 5.3 ± 0.6
Penicillium chrysogenum [1]; [16]
  Average defacement rating ± standard deviation: 0.3 ± 0.6
Stachybotrys chartarum [2]; 7 days
  Average defacement rating ± standard deviation: 5.8 ± 3.0
Stachybotrys chartarum [2]; 14 days
  Average defacement rating ± standard deviation: 0.8 ± 1.8
Stachybotrys chartarum [2]; 21 days
  Average defacement rating ± standard deviation: 0.6 ± 1.7
Alternaria alternata [3]; 7 days
  Average defacement rating ± standard deviation: 1.9 ± 2.4
Alternaria alternata [3]; 14 days
  Average defacement rating ± standard deviation: 0.5 ± 1.8
Alternaria alternata [3]; 21 days
  Average defacement rating ± standard deviation: 0.5 ± 1.8
Penicillium chrysogenum [4]; 72 h, read-out: 3 day MIC
  MIC: < 0.1 µg/mL
Stachybotrys chartarum [5]
  3 day MIC: <0.1 µg/mL
Stachybotrys chartarum [5]; 72 h, read-out: 3 day MIC
  MIC: < 0.1 µg/mL
[6]; 72 h, read-out: 3 day MIC
  MIC: < 0.1 µg/mL
Penicillium purpurogenum; 72 h, read-out: 3 day MIC
  MIC: 0.78 µg/mL (≈ 2.93 µM)
Alternaria alternata [7]; 72 h, read-out: 3 day MIC
  MIC: 0.78 µg/mL (≈ 2.93 µM)
Penicillium corylophilum; 72 h, read-out: 3 day MIC
  MIC: 0.39 µg/mL (≈ 1.47 µM)
